# Experimental data from article PMC6979384, “Characterization of the plant homeodomain (PHD) reader family for their histone tail interactions” (Epigenetics & Chromatin, 2020).
# What was measured:
# Test in all cases: Histone peptide microarray
# Assay type in all cases: binding, human
# Details in all cases: each array performed twice, total n = 4
# [1] = test system: KDM5A (3)
# In short: (§1)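 Recombinant GST-PHD protein at 0.5 μM; 293-member modified histone peptide array; signals averaged from four repeats ± SD.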
# [2] = test system: BPTF (PB)
# In short: as §1
# [3] = test system: PHF8
# In short: as §1
# [4] = test system: AIRE (PP)
# In short: as §1
# [5] = test system: ING2
# In short: as §1
# [6] = test system: ING4
# In short: as §1
# [7] = test system: KDM5B (3)
# In short: as §1
# [8] = test system: ING5
# In short: as §1
# [9] = test system: TAF3
# In short: as §1
# [10] = test system: MORC3 (CW)
# In short: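 Steps: express and purify GST-tagged PHD reader; incubate 0.5 μM protein on a peptide microarray (293 histone peptides, single or combined PTMs) following an optimized protocol; average signal across 4 replicates.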
# [11] = test system: PHF23
# In short: as §1
# [12] = test system: KDM7A
# In short: as §1
# [13] = test system: KDM5B (1)
# In short: as §1
# [14] = test system: CHD4 (PPCC)
# In short: as §1
# [15] = test system: KDM4C (TTP)
# In short: as §1
# [16] = test system: MLL5
# In short: as §1
# [17] = test system: RAG2
# In short: as §1
# [18] = test system: DIDO1
# In short: as §1
# [19] = test system: PHF2
# In short: as §1
# [20] = test system: DPF2 (PPC2W2)
# In short: as §1
# [21] = test system: PHRF1 (RP)
# In short: as §1
# [22] = test system: CHD5 (PCC)
# In short: as §1
# [23] = test system: KDM5A (1)
# In short: as §1
# [24] = test system: SP140L
# In short: as §1
# [25] = test system: ING3
# In short: as §1
# [26] = test system: PHF13
# In short: as §1
# [27] = test system: ING1
# In short: as §1
# [28] = test system: TRIM66 (PB)
# In short: as §1
# [29] = test system: CHD5 (PPCC)
# In short: as §1
# [30] = test system: BAZ2B
# In short: as §1
# [31] = test system: PHF21A
# In short: as §1
substance,measurement,setting,value
H3.3K27hxo (15-34): H3.3 15-34,Array Heatmap value (peptide array signal),"[1]; KDM5A (3), sheet ""Array Heatmap""",0.3948
same,Array Heatmap value (peptide array signal),"[2]; BPTF (PB), sheet ""Array Heatmap""",0.2696
same,Array Heatmap value (peptide array signal),"[3]; PHF8, sheet ""Array Heatmap""",0.2775
same,Array Heatmap value (peptide array signal),"[4]; AIRE (PP), sheet ""Array Heatmap""",0.3038
same,Array Heatmap value (peptide array signal),"[5]; ING2, sheet ""Array Heatmap""",0.5803
same,Array Heatmap value (peptide array signal),"[6]; ING4, sheet ""Array Heatmap""",0.3406
same,Array Heatmap value (peptide array signal),"[7]; KDM5B (3), sheet ""Array Heatmap""",0.3693
same,Array Heatmap value (peptide array signal),"[8]; ING5, sheet ""Array Heatmap""",0.2604
same,Array Heatmap value (peptide array signal),"[9]; TAF3, sheet ""Array Heatmap""",0.2046
same,Array Heatmap value (peptide array signal),"[10]; MORC3 (CW), sheet ""Array Heatmap""",0.2947
same,Array Heatmap value (peptide array signal),"[11]; PHF23, sheet ""Array Heatmap""",0.4877
same,Array Heatmap value (peptide array signal),"[12]; KDM7A, sheet ""Array Heatmap""",0.2316
same,Array Heatmap value (peptide array signal),"[13]; KDM5B (1), sheet ""Array Heatmap""",0.5964
same,Array Heatmap value (peptide array signal),"[14]; CHD4 (PPCC), sheet ""Array Heatmap""",0.4698
same,Array Heatmap value (peptide array signal),"[15]; KDM4C (TTP), sheet ""Array Heatmap""",0.3245
same,Array Heatmap value (peptide array signal),"[16]; MLL5, sheet ""Array Heatmap""",0.4892
same,Array Heatmap value (peptide array signal),"[17]; RAG2, sheet ""Array Heatmap""",0.1931
same,Array Heatmap value (peptide array signal),"[18]; DIDO1, sheet ""Array Heatmap""",0.6054
same,Array Heatmap value (peptide array signal),"[19]; PHF2, sheet ""Array Heatmap""",0.4925
same,Array Heatmap value (peptide array signal),"[20]; DPF2 (PPC2W2), sheet ""Array Heatmap""",0.5523
same,Array Heatmap value (peptide array signal),"[21]; PHRF1 (RP), sheet ""Array Heatmap""",0.3528
same,Array Heatmap value (peptide array signal),"[22]; CHD5 (PCC), sheet ""Array Heatmap""",0.595
same,Array Heatmap value (peptide array signal),"[23]; KDM5A (1), sheet ""Array Heatmap""",0.3701
same,Array Heatmap value (peptide array signal),"[24]; SP140L, sheet ""Array Heatmap""",0.2976
same,Array Heatmap value (peptide array signal),"[25]; ING3, sheet ""Array Heatmap""",0.3628
same,Array Heatmap value (peptide array signal),"[26]; PHF13, sheet ""Array Heatmap""",0.4541
same,Array Heatmap value (peptide array signal),"[27]; ING1, sheet ""Array Heatmap""",0.4956
same,Array Heatmap value (peptide array signal),"[28]; TRIM66 (PB), sheet ""Array Heatmap""",0.4904
same,Array Heatmap value (peptide array signal),"[29]; CHD5 (PPCC), sheet ""Array Heatmap""",0.3985
same,Array Heatmap value (peptide array signal),"[30]; BAZ2B, sheet ""Array Heatmap""",0.3359
same,Array Heatmap value (peptide array signal),"[31]; PHF21A, sheet ""Array Heatmap""",0.3552
H3R2me2a + T3p + K4me3: H3 1-20,Array Heatmap signal (histone peptide microarray),"[1]; GST-tagged KDM5A (3), sheet Array Heatmap",0.5129
same,Array Heatmap signal (histone peptide microarray),"[2]; GST-tagged BPTF (PB = PHD + Bromodomain), sheet Array Heatmap",0.3598
same,Array Heatmap signal (histone peptide microarray),"[3]; GST-tagged PHF8, sheet Array Heatmap",0.3942
same,Array Heatmap signal (histone peptide microarray),"[4]; GST-tagged AIRE (PP), sheet Array Heatmap",0.4234
same,Array Heatmap signal (histone peptide microarray),"[5]; GST-tagged ING2, sheet Array Heatmap",0.5913
same,Array Heatmap signal (histone peptide microarray),"[6]; GST-tagged ING4, sheet Array Heatmap",0.4572
same,Array Heatmap signal (histone peptide microarray),"[7]; GST-tagged KDM5B (3), sheet Array Heatmap",0.5351
same,Array Heatmap signal (histone peptide microarray),"[8]; GST-tagged ING5, sheet Array Heatmap",0.3525
same,Array Heatmap signal (histone peptide microarray),"[9]; GST-tagged TAF3, sheet Array Heatmap",0.272
same,Array Heatmap signal (histone peptide microarray),"[10]; GST-tagged MORC3 (CW = CW-type Zn-finger), sheet Array Heatmap",0.479
same,Array Heatmap signal (histone peptide microarray),"[11]; GST-tagged PHF23, sheet Array Heatmap",0.5238
same,Array Heatmap signal (histone peptide microarray),"[12]; GST-tagged KDM7A, sheet Array Heatmap",0.3305
same,Array Heatmap signal (histone peptide microarray),"[13]; GST-tagged KDM5B (1), sheet Array Heatmap",0.6049
same,Array Heatmap signal (histone peptide microarray),"[14]; GST-tagged CHD4 (PPCC = Dual PHD + Dual Chromodomain), sheet Array Heatmap",0.6044
same,Array Heatmap signal (histone peptide microarray),"[15]; GST-tagged KDM4C (TTP = Tandem Tudor domain + PHD), sheet Array Heatmap",0.4695
same,Array Heatmap signal (histone peptide microarray),"[16]; GST-tagged MLL5, sheet Array Heatmap",0.5468
same,Array Heatmap signal (histone peptide microarray),"[17]; GST-tagged RAG2, sheet Array Heatmap",0.2527
same,Array Heatmap signal (histone peptide microarray),"[18]; GST-tagged DIDO1, sheet Array Heatmap",0.7496
same,Array Heatmap signal (histone peptide microarray),"[19]; GST-tagged PHF2, sheet Array Heatmap",0.6351
same,Array Heatmap signal (histone peptide microarray),"[20]; GST-tagged DPF2 (PPC2W2 = Dual PHD + C2W2-type Zn-finger), sheet Array Heatmap",0.687
same,Array Heatmap signal (histone peptide microarray),"[21]; GST-tagged PHRF1 (RP), sheet Array Heatmap",0.4955
same,Array Heatmap signal (histone peptide microarray),"[22]; GST-tagged CHD5 (PCC = PHD + Dual Chromodomain), sheet Array Heatmap",0.7634
same,Array Heatmap signal (histone peptide microarray),"[23]; GST-tagged KDM5A (1), sheet Array Heatmap",0.4435
same,Array Heatmap signal (histone peptide microarray),"[24]; GST-tagged SP140L, sheet Array Heatmap",0.3541
same,Array Heatmap signal (histone peptide microarray),"[25]; GST-tagged ING3, sheet Array Heatmap",0.4974
same,Array Heatmap signal (histone peptide microarray),"[26]; GST-tagged PHF13, sheet Array Heatmap",0.6175
same,Array Heatmap signal (histone peptide microarray),"[27]; GST-tagged ING1, sheet Array Heatmap",0.5674
same,Array Heatmap signal (histone peptide microarray),"[28]; GST-tagged TRIM66 (PB = PHD + Bromodomain), sheet Array Heatmap",0.6445
same,Array Heatmap signal (histone peptide microarray),"[29]; GST-tagged CHD5 (PPCC = Dual PHD + Dual Chromodomain), sheet Array Heatmap",0.5403
same,Array Heatmap signal (histone peptide microarray),"[30]; GST-tagged BAZ2B, sheet Array Heatmap",0.443
same,Array Heatmap signal (histone peptide microarray),"[31]; GST-tagged PHF21A, sheet Array Heatmap",0.4298
